Entries after “also recorded” stand apart in the source; their conditions may differ.
How the values were obtained:
h-5-HT6 receptor = target: T1, h-5-HT6 receptor (Homo sapiens, UniProt P50406); assay: Human 5-HT6 receptor radioligand binding assay (HEK293 membranes, [3H]-LSD); settings: HEK293 membranes expressing h-5-HT6 receptor, 1 nM [3H]-LSD; geometrical mean; read-out: Ki (5-HT6 Agonist Site Radioligand Binding)
T1 construct: expressed in transfected cells; host or cells: HEK293 cells (membranes)
T1 sequence (P50406 whole entry): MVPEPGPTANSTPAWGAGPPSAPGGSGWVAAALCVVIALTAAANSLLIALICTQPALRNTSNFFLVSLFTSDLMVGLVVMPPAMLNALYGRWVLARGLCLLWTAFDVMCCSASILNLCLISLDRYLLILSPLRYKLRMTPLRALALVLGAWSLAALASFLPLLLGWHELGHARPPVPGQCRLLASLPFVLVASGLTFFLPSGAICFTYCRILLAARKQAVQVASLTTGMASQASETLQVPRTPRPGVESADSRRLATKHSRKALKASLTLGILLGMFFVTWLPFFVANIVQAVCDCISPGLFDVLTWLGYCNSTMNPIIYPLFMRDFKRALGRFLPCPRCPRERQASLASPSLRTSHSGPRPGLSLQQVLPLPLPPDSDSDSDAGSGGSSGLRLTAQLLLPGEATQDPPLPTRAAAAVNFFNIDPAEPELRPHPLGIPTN

5-HT6 receptor = target: T2, 5-HT6 receptor (Homo sapiens, UniProt P50406); assay: Human 5-HT6 receptor radioligand binding assay (transfected CHO cells, [3H]LSD); settings: transfected CHO cell membranes, 2 nM [3H]LSD
T2 construct: expressed in transfected cells; host or cells: CHO cells (membrane homogenates)
T2 sequence (P50406 whole entry): as above
Experimental: (vi) Human 5-HT6 Receptor Radioligand Binding Assay
Affinity of compounds for the agonist site of the 5-HT6 receptor in transfected CHO cells was determined in a radioligand binding assay essentially as described by Monsma, F. J., et al., Mol. Pharmacol. (1993) 43, 320-327. […] Nonspecific binding was determined in the presence of 100 μM serotonin. The amount of binding was determined by radioactivity quantitation with scintillation counter. IC50s were determined from a standard curve of the reference compound serotonin. Ki's as shown in Table 7 were derived from the IC50s in the standard method.

5HT2C receptors [1] = target: T3, 5HT2C receptors (Homo sapiens, UniProt P28335); assay: Human 5-HT2C functional assay in CHO-K1 cells (96-well, calcium, FLIPR); format: cell-based; design: expressed in transfected cells; settings: 5-HT2c agonist activity, CHO-K1 cells stably transfected
T3 sequence (P28335 33-458): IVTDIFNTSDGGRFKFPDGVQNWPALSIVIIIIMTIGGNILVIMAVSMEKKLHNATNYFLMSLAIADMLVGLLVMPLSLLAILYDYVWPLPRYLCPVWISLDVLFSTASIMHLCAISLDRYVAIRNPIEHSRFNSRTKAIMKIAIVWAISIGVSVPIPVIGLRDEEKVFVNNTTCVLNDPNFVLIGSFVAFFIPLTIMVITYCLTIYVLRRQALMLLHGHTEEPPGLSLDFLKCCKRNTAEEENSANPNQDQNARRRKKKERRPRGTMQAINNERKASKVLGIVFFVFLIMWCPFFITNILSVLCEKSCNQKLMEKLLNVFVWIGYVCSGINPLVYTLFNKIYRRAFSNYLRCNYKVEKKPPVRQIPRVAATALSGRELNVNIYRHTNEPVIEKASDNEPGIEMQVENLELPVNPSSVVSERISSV
Experimental: (iv) Human 5-HT2C Functional Assay in CHO-K1 Cells
Functional activity was determined by testing the effect of the compounds on intracellular calcium levels in CHO-K1 cells stably transfected with the human 5-HT2C receptor. Cells were seeded into 96-well plates at 60,000 cells/well and grown overnight in tissue culture medium (UltraCHO™ (Lonza), containing 1% dFCS, 250 μg/mL Zeocin, 400 μg/mL Geneticin) at 37° C. and 5% CO2. Growth medium was replaced by medium without dFCS for overnight incubation. Cells were loaded with a fluorescent calcium-sensitive dye in the presence of probenicid according to the manufacturer's protocol (FLIPR Ca4 Assay kit, Molecular Devices). Serial compound dilutions (final concentrations 10^−10 to 10^−5 M) were added to the cells and the maximum calcium response was determined using a FLIPR instrument (Molecular Devices). Concentration-response curves were fitted using a four-parameter logistic equation (GraphPad Prism). The concentration at which the compound exerts half its maximal effect is named the ‘effective concentration 50’ or ‘EC50’ and is listed in Table 5.

[2] = target: T4, human serotonin 5-HT2c receptor (Homo sapiens, UniProt P28335); assay: Human 5-HT2C receptor radioligand binding assay (agonist site, [125I]DOI); settings: 5-HT2c agonist site; transfected CHO cell membranes; 0.2 nM [125I](±)DOI
T4 construct: expressed in transfected cells; host or cells: CHO cells (membrane homogenates)
T4 sequence (P28335 33-458): T3 sequence (P28335 33-458)
Experimental: (i) Human 5-HT2C Receptor Radioligand Binding Assay
Affinity of compounds for the agonist site of the […], receptor in transfected CHO cells was determined in a radioligand binding assay essentially as described by Bryant, H. U., et al., Life Sciences (1996) 59(15), 1259-1268.

5HT2C receptors [3] = target: T3, 5HT2C receptors; assay: Human 5-HT2C functional assay in 1321N1 cells (intracellular calcium, FLIPR); format: cell-based; design: expressed in transfected cells; host or cells: 1321N1 cells; settings: 5-HT2c agonist activity, maximum calcium response
Method in brief: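 1321N1 cells stably expressing human 5-HT2C were serum-starved overnight and loaded with Fluo-4 AM and 1% probenecid. Compounds (10^−10 to 10^−5 M) were tested alone or with 10^−9 M serotonin, and peak calcium was read by FLIPR. EC50 from four-parameter logistic fit.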

[4] = test system: conditioned avoidance response (CAR) behavior; assay: Conditioned avoidance responding in rats; format: in vivo, rat; settings: male Wistar rats
Experimental: The fact that antipsychotics have the unique ability to selectively suppress CAR behavior, made the CAR test a useful tool for the screening of new, potentially antipsychotic compounds. […] Animals Male Wistar rats (9-11 weeks old, Charles River, Germany) were pair-housed and allowed ad-libitum access to food and water. A 12-hour light/dark cycle was imposed with lights-on period between 0530 and 1730 hours. All testing occurred between 700 and 1300 hours. All procedures were approved by Abbott Institutional Animal Care and Use Committee (USA) or Animal Welfare Officer (Germany) and were conducted in accordance with the National Institutes of Health Guide for Care and Use of Laboratory Animals guidelines and applicable national laws in the facilities accredited by the Association for the Assessment and Accreditation of Laboratory Animal Care. Methods Wistar rats are exposed to a conditioned stimulus CS (a 2.9-kHz tone of 10 second duration), which is a signal for the animal that it must move into the other chamber in order to avoid an immediately ensuing footshock US (0.5 mA, 10 second, tone continues during shock presentation). Once the shock has begun, the animal can still escape it by moving to the other chamber. Each session is limited to a maximum of 40 trials (intertrial interval 10-90 seconds). The animals generally learn quickly to change chambers upon the conditioned stimulus and thus avoid further shocks. Scored are: • Avoided responses=crossings into other compartment within 10 seconds of tone presentation; • Escaped responses=crossings between 10-20 seconds of tone presentation; • Failures=crossings after cessation of tone-shock presentation or no crossing. […] At the test sessions (=CS-shock pairings), animals are pre-treated with a test drug or vehicle 30 minutes before commencement of the session.

5HT2B receptors = target: T5, 5HT2B receptors (Homo sapiens, UniProt P41595); assay: Human 5-HT2B functional high throughput screening assay in CHO-K1 cells (calcium flux); format: cell-based
T5 construct: expressed in transfected cells; host or cells: CHO-K1 cells
T5 sequence (P41595 whole entry): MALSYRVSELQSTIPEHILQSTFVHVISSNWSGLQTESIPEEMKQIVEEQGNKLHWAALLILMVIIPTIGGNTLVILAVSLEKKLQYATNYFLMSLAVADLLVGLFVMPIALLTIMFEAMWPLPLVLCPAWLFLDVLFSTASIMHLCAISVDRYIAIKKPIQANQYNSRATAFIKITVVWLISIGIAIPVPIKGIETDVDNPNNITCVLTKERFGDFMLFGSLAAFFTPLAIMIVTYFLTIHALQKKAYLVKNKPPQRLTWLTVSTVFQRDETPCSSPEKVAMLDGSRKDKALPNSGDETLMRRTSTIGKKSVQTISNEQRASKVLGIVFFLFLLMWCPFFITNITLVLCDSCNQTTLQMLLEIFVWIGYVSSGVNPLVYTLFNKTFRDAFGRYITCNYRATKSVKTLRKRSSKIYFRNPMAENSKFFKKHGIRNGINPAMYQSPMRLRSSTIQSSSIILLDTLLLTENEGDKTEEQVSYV
Method in brief: (§1)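 Agonism is measured as intracellular calcium increase in receptor-overexpressing CHO-K1 cells, read by FLIPR at 25 °C. Responses are expressed relative to serotonin, with EC50 and Emax derived from a 4-parameter logistic curve over 6 concentrations starting at 10 μM.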

[5] = test system: AMP- or PCP-induced hyperactivity; assay: Psychostimulant (AMP or PCP)-induced hyperlocomotion in mice; format: in vivo, mouse; settings: test compound ip 30 min before d-amphetamine 2.0 mg/kg sc
Description: (x) Assessment of Effects on Psychostimulant-Induced Hyperlocomotion in Mice
In both humans and experimental animals amphetamine (AMP) profoundly affects motor activity, sensorimotor function, sleep, attention, aggressive and sexual behaviors, learning and memory, operant behaviors, appetite and food intake. In addition, amphetamine induces psychotic reactions in normal individuals and exacerbates symptoms of schizophrenia in patients. In experimental animals several distinct behaviors are considered to be correlates of amphetamine psychosis. For example, amphetamine-induced hyperactivity in rodents is believed to model the psychotic symptoms of schizophrenia. Reversal of these behaviors is used to predict potential antipsychotic activity of drugs in pre-clinical studies.
In humans, phencyclidine (PCP) is known to produce a syndrome of behavioral effects which have many characteristics in common with schizophrenia. Therefore, antagonism of PCP effects might be evidence for antipsychotic efficacy of a compound.
Male NMRI mice (5-week old, Janvier, France) or C57BL/6J mice (6-week old, Janvier, France) were group housed and allowed ad-libitum access to food and water. A 12 hour light/dark cycle was imposed with lights-on period between 0530 and 1730 hours. All testing occurred between 700 and 1300 hours. All procedures were approved by Abbott Institutional Animal Care and Use Committee (USA) or Animal Welfare Officer (Germany) and were conducted in accordance with the National Institutes of Health Guide for Care and Use of Laboratory Animals guidelines and applicable national laws in the facilities accredited by the Association for the Assessment and Accreditation of Laboratory Animal Care.
On the day of experiment, animals were brought from the animal facility into the experimental room and were allowed to acclimatize for at least 30 minutes. Animals were then placed in the test cages for a habituation period of 60 minutes. The animals were then injected ip with the test compound and returned to the test cage. 30 Minutes later the mice were injected with d-amphetamine (2.0 mg/kg, AMP, Sigma, #A5880, sc) or phencyclidine (2.0 mg/kg, PCP, Sigma, #P3029, sc) Sigma, and returned to the test cages for 90 minutes. Each treatment group consisted of 8-10 animals. The data was acquired by Cage rack Photobeam system (SDI, San Diego Instruments, CA). The analyzed data were: fine movements, ambulations and total movements (fine+ambulations). Data was subjected to one- or two-way distribution-free ANOVA followed by Dunnett's and Tukey's post hoc tests.

5HT2C receptors [6] = target: T3, 5HT2C receptors; assay: Human 5-HT2C functional high throughput screening assay in CHO-K1 cells (calcium flux); format: cell-based; design: expressed in transfected cells; host or cells: CHO-K1 cells
Method in brief: as §1

SMILES	Ki (5-HT6 receptor)	Ki [2]	EC50 (5HT2C receptors [3])	also measured
O=S(=O)(c1cccc(F)c1)N1Cc2ccccc2[C@@H]2CN(Cc3ccccc3)C[C@H]2C1 (relative stereo) [Example 8, Trans-2-benzyl-5-(3-fluorophenylsulfonyl)-1,2,3,3a,4,5,6,10b-octahydrobenzo[c]pyrrolo[3,4-e]azepine]	28 nM	93 nM	–	Ki (h-5-HT6 receptor): 40.3 nM; EC50 (5HT2C receptors [1]): > 1000 nM
O=S(=O)(c1cccc(Br)c1)N1Cc2ccccc2[C@@H]2CN(Cc3ccccc3)C[C@H]2C1 (relative stereo) [Example 12, Trans-2-benzyl-5-(3-bromophenylsulfonyl)-1,2,3,3a,4,5,6,10b-octahydrobenzo[c]pyrrolo[3,4-e]azepine]	57 nM	320 nM	> 10 µM	–
O=S(=O)(c1ccc(F)c(Cl)c1)N1Cc2ccccc2[C@@H]2CN(Cc3ccccc3)C[C@H]2C1 (relative stereo) [Example 14, Trans-2-benzyl-5-(3-chloro-4-fluorophenylsulfonyl)-1,2,3,3a,4,5,6,10b-octahydrobenzo[c]pyrrolo[3,4-e]azepine]	250 nM	590 nM	> 10 µM	–
O=S(=O)(c1cccc(C(F)(F)F)c1)N1Cc2ccccc2[C@@H]2CN(Cc3ccccc3)C[C@H]2C1 (relative stereo) [Example 16, Trans-2-benzyl-5-(3-(trifluoromethyl)phenylsulfonyl)-1,2,3,3a,4,5,6,10b-octahydrobenzo[c]pyrrolo[3,4-e]azepine]	140 nM	560 nM	> 10 µM	–
O=S(=O)(c1cccc(Cl)c1)N1Cc2ccccc2[C@@H]2CN(Cc3ccccc3)C[C@H]2C1 (relative stereo) [Example 20, Trans-2-benzyl-5-(3-chlorophenylsulfonyl)-1,2,3,3a,4,5,6,10b-octahydrobenzo[c]pyrrolo[3,4-e]azepine]	43 nM	260 nM	> 10 µM	–
O=C1NCc2ccccc2[C@@H]2CN(S(=O)(=O)c3cccc(Cl)c3Cl)C[C@@H]12 (relative stereo) [Example 39, Trans-2-(2,3-dichlorophenylsulfonyl)-1,2,3,3a,5,6-hexahydrobenzo[c]pyrrolo[3,4-e]azepin-4(10bH)-one]	275 nM	–	–	Ki (h-5-HT6 receptor): 207 nM
COc1ccc(-c2ccc3c(c2)C(=O)NC[C@H]2CN(C)C[C@H]32)cc1 [Example 158, (3aS,10bS)-8-(4-Methoxyphenyl)-2-methyl-1,2,3,3a,4,5-hexahydrobenzo[e]pyrrolo[3,4-c]azepin-6(10bH)-one]	–	–	–	conditioned avoidance behavior (avoided responses) ([4]; acute, 30 minutes before session): significantly suppressed conditioned avoidance behavior; number of failures ([4]; indicator of sedation or extrapyramidal side effects): without affecting the number of failures; EC50 (5HT2B receptors; 5-HT2B agonist activity, CHO-K1 cells, calcium flux, read-out: EC50): > 10 µM; Emax (5HT2B receptors; 5-HT2B, maximum functional response as percentage relative to the effect of serotonin): inactive; AMP-induced hyperactivity [5]: attenuated AMP-induced hyperactivity in mice significantly and in a dose dependent manner; also recorded: attenuating the affect of d-amphetamine (AMP); EC50 (5HT2C receptors [6]; 5-HT2C agonist activity, CHO-K1 cells, calcium flux, read-out: EC50): 0.6 nM; Emax (5HT2C receptors [6]; CHO-K1, 5-HT2C, maximum functional response as percentage relative to the effect of serotonin, read-out: Emax): > 120%
